Measured values as given in patent publication US12636259B2, “Transdermal absorption preparation” (Sumitomo Pharma Co., Ltd., priority 2020, dated 2026).

Assay: Saturation solubility measurement of compound A in additives
Format: physicochemical
Conditions: room temperature
Method: Various additives were weighed into a vial, compound A was added until it was no longer dissolved, and the mixture was stirred overnight at room temperature. The mixture was filtered using a 0.45 μm PTFE filter and the concentration of compound A in the filtrate was quantified by high performance liquid chromatography (ODS column, UV detector). When the concentration of compound A exceeded 20%, the addition of compound A was stopped.

saturation solubility of compound A (tandospirone) (additive: N-methyl-2-pyrrolidone): 15.4%
saturation solubility of compound A (tandospirone) (additive: diisopropyl adipate): 2.0%
saturation solubility of compound A (tandospirone) (additive: dipropylene glycol): 1.6%
saturation solubility of compound A (tandospirone) (additive: isopropyl myristate): 0.6%
saturation solubility of compound A (tandospirone) (additive: lactic acid, stirred overnight, drug addition stopped when solubility exceeded 20%): not less than 20%
saturation solubility of compound A (tandospirone) (additive: lauromacrogol (4)): 2.0%
saturation solubility of compound A (tandospirone) (additive: levulinic acid, drug addition stopped when solubility exceeded 20%): not less than 20%
saturation solubility of compound A (tandospirone) (additive: oleic acid, drug addition stopped when solubility exceeded 20%): not less than 20%
saturation solubility of compound A (tandospirone) (additive: oleyl alcohol): 1.0%
saturation solubility of compound A (tandospirone) (additive: polysorbate 20): 1.4%
saturation solubility of compound A (tandospirone) (additive: polysorbate 80): 1.4%
saturation solubility of compound A (tandospirone) (additive: propylene glycol fatty acid diester (C8)): 1.3%
saturation solubility of compound A (tandospirone) (additive: propylene glycol fatty acid ester (C8)): 5.0%
saturation solubility of compound A (tandospirone) (additive: propylene glycol fatty acid ester (C12)): 5.9%
saturation solubility of compound A (tandospirone) (additive: sorbitan monolaurate, measured as mixed solution isopropyl myristate/sorbitan monolaurate = 50/50): 2.3%
Structure (SMILES): O=C1[C@@H]2[C@H]3CC[C@H](C3)[C@@H]2C(=O)N1CCCCN1CCN(c2ncccn2)CC1 [compound A, (1R,2S,3R,4S)—N-[4-[4-(pyrimidin-2-yl)piperazin-1-yl]butyl]-2,3-bicyclo[2.2.1]heptan dicarboxyimide]
